“Also recorded” adds a separate entry of the source.
Experiments:
[1] = Storage at elevated temperature/humidity, solid form checked by XRPD; type: physicochemical; details: for XRPD after storage at 25° C./97% RH for 1 week (solid form) / XRPD after storage at 40° C./75% RH for 1 week (solid form): 1 week (7 days); for Form change on exposure to high RH (>90%): e.g. 7 days / prolonged exposure
Method: Samples 1 and 2 were characterized by XRPD at various conditions. XRPD patterns were collected for the samples at ambient condition as the samples were provided; at variable temperature (VT-XRPD); at variable humidity (VH-XRPD); after the samples were exposed to 40° C./75% RH for 1 week and 25° C./97% RH for 1 week, respectively; and after a GVS measurement wherein the samples were exposed to 0-90% RH. Samples 1 and 2 were also characterized by ^1H NMR, TGA, DSC, KF, IC, GVS (exposed to 0-90% RH), PLM, SEM, and HPLC (Table 5). […]

[2] = Gravimetric Vapour Sorption (GVS) with XRPD post-GVS; type: physicochemical; details: for GVS total mass change between 0 and 90% RH: 0-90% RH (Table 17); for XRPD post GVS (uptake 0-90% RH): after GVS 0-90% RH; for Form change at high RH (>90%) in GVS experiments: above 90% RH
Method: Sorption isotherms were obtained using a SMS DVS Intrinsic moisture sorption analyzer, controlled by DVS Intrinsic Control software v1.0.1.2 (or v 1.0.1.3). The sample temperature was maintained at 25° C. by the instrument controls. The humidity was controlled by mixing streams of dry and wet nitrogen, with a total flow rate of 200 ml/min. The relative humidity was measured by a calibrated Rotronic probe (dynamic range of 1.0-100% RH), located near the sample. The weight change, (mass relaxation) of the sample as a function of % RH was constantly monitored by the microbalance (accuracy ±0.005 mg).
A sample (e.g., 20 mg) was placed in a tared mesh stainless steel basket under ambient conditions. The sample was loaded and unloaded at 40% RH and 25° C. (typical room conditions). A moisture sorption isotherm was performed as outlined below (2 scans giving 1 complete cycle). Standard isotherms were performed at 25° C. at 10% RH intervals over a 0-90% RH range. Data analysis was carried out using Microsoft Excel using DVS Analysis Suite v6.2 (or 6.1 or 6.0).
In a cycle of 2 scans, the first scan was performed with adsorption of 40-90% RH, followed by a second scan with desorption of 90-0% RH and adsorption of 0-40% RH, with intervals of 10% RH, at 25° C. with stability dm/dt of 0.002% ° C./min. The sorption time was 6 hr time out.
The sample was recovered after completion of the isotherm and re-analyzed by XRPD. Custom moisture sorption methods were also performed at 25° C. at fixed % RH intervals over a 0-95% RH range, with the purpose to fully understand the sorption/desorption behavior of the compound under elevated conditions.
To further explore the humidity behavior of Sample 1 (Form 1) upon exposure to high RH (>90%), custom GVS experiments were designed and carried out. Initially, the sample was treated by holding at 90 and then 95% RH for ˜12 hours to see if hydrate formation could be observed (HighRH method of Steps 1 and 2 of Table 2, FIGS. 6C-6D).
To test the stability of the hydrated state, GVS method HighRH_Desorp_3 was designed with a desorption step and subsequent adsorption (see Table 2 with steps 1-4, FIGS. 6E-6F).
Finally, to ensure complete conversion to the anhydrous and hydrated forms, a GVS experiment was designed to increase both the length of the desorption step at 0% RH, and the adsorption step at 95% RH, respectively (Table 3). Based on the weight stabilization observed in the kinetic plots for Sample 1 in HighRH and HighRH_Desorp_3 methods discussed above (FIGS. 6D and 6F), a holding time of 800 mins at 0% RH and 1600 mins at 95% RH were chosen. A double cycle was also recorded for this experiment to observe whether the sample would return to Form 1 or form a mixed anhydrous/hydrated species (see Table 3, FIGS. 6G-6H).

[3] = Storage at elevated temperature/humidity, solid form checked by XRPD; type: physicochemical
[4] = Variable humidity XRPD (VH-XRPD); type: physicochemical
Method: Samples run under non-ambient conditions were prepared by gently packing into a cavity, cut into a silicon wafer to obtain a flat surface and mounted onto a humidity stage with an Ansyco controller and humidity sensor positioned directly next to the sample holder. The data were collected at 298.15 K with water temperature of 35.0° C., in an angular range of 3 to 31° 2θ, with a step size of 0.025° 2θ, a collection time of 2.0 sec/step, and a collection time at each % RH was 41 min 28 sec.
X-Ray Powder Diffraction (XRPD) patterns were collected at variable humidity values from 0 to 95% RH, based upon the humidity behavior of each compound observed during GVS experiments (described herein). For each Variable Humidity X-Ray Powder Diffraction (VH-XRPD) experiment performed, the % RH values selected are provided alongside the relevant experimental result. Full tables of detailing the % RH value at each collection point and the associated delay time at each value are provided in Tables 10-12.
To fully characterize the polymorphic behavior of Samples 1 and 2 at variable humidity, and to collect reference XRPD patterns for the ‘pure’ anhydrous Form 1 and Form 2 material, and ‘pure’ hydrated Form 3 material, Variable Humidity (VH) XRPD experiments were conducted on Samples 1 and 2. Initially, VH-XRPD experiments were conducted using Sample 1, and XRPD diffractograms were collected at selected humidity values, in line with those collected during GVS experiments (see FIGS. 6E-6F). XRPD diffractograms were collected initially at ambient RH, then collected over 24 hours at ˜95% RH and finally collected during desorption steps to 0% RH and over 10 hours at 0% RH (see FIG. 4C).

[5] = Variable temperature XRPD (VT-XRPD); type: physicochemical
Method: Samples run under non-ambient conditions were mounted on a silicon wafer with a heat-conducting compound. The sample was then heated from ambient to the appropriate temperature at 20° C./min and subsequently held isothermally for 1 minute before data collection was initiated.
Variable Temperature XRPD (VT-XRPD) experiments were therefore conducted to examine the thermal behavior of Sample 2 observed by DSC (see FIG. 9B). […] (blue) as Form 1 material (FIG. 5D).

[6] = Solubility assessment and polymorph screen on Sample 1 (Form 1) of RAD1901-2HCl in 24 solvent systems; type: physicochemical
Method: Solubility assessment was carried out on the Sample 1 of RAD1901-2HCl (majorly Form 1 shown by XRPD) in 24 solvent systems in HPLC vials (sample IDs: A1 to A24). RAD1901-2HCl (25 mg) was treated with increasing volumes of solvent until the material fully dissolved or until a maximum of 60 vol had been used (Table 13).
After each addition of solvent, the system was stirred for 5 to 10 minutes at 25° C., then shaken at 50° C. for 5 to 10 minutes, and observations made. Samples were allowed to stand at room temperature for 5 min before the addition of a new aliquot of solvent. After the assessment was completed, the suspensions obtained were matured (maturation) and the clear solutions were cooled (cooling) and slowly evaporated (evaporation) as described below. All solids recovered from maturation, cooling and evaporation experiments were analyzed by high resolution XRPD.
The suspensions obtained during the solubility assessment were matured by shaken in a maturation chamber between 50° C. and RT (8 hr per cycle) for up to 5 days. Then the mixture was allowed to stand at room temperature for 10 minutes. The resulting solids were filtered and air dried and analyzed by XRPD. The clear solutions obtained during maturation were evaporated in ambient conditions and the resulting residues were analyzed by XRPD.
The clear solutions obtained during the course of the solubility assessment were cooled on a Polar Bear device from 50° C. to 5° C. at 0.1° C./min. Solids obtained upon cooling were recovered from the vials, air dried and analyzed by XRPD. If no solid was obtained, the solutions were evaporated slowly through a needle inserted into the septum cap of the vial until a solid appeared at ambient conditions and the resulting solids were filtered, air dried and analyzed by XRPD.

estrogen receptor (ER) = target: T1, estrogen receptor (ER) (Homo sapiens, UniProt P03372); details: cited from earlier work
T1 sequence (P03372 1-595): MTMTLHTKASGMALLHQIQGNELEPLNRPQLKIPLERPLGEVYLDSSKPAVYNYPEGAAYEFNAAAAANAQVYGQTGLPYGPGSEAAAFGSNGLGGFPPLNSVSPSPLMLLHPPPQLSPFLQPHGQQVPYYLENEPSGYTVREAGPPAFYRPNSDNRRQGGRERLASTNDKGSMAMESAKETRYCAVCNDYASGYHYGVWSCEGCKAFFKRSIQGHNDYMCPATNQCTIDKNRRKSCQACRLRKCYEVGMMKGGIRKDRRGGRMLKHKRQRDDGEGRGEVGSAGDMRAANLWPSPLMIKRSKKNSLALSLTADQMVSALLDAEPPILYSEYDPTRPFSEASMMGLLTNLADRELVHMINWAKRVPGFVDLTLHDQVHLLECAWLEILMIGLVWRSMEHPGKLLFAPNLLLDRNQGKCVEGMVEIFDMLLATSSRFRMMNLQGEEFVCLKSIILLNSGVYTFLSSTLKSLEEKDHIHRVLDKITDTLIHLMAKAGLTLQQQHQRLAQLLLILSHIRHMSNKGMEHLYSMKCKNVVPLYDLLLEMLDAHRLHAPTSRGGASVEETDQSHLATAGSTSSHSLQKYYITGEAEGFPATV

CCNCCc1ccc(CN(CC)c2cc(OC)ccc2[C@@H]2CCc3cc(O)ccc3C2)cc1.Cl.Cl [Form 1B]
XRPD after storage at 25° C./97% RH for 1 week (solid form) ([1]; listed as Pattern B): Unchanged post storage at both conditions | XRPD after storage at 40° C./75% RH for 1 week (solid form) ([1]; listed as Pattern B): Unchanged post storage at both conditions | GVS total mass change between 0 and 90% RH ([2]; listed as Pattern B): Total change in mass of 1.4% wt. between 0 and 90% RH, | XRPD post GVS (uptake 0-90% RH) ([2]; 25° C., listed as Pattern B): no hysteresis. XRPD post-GVS is consistent with Pattern

CCNCCc1ccc(CN(CC)c2cc(OC)ccc2[C@@H]2CCc3cc(O)ccc3C2)cc1.Cl.Cl [Lyophilization in water]
XRPD post storage at 25° C./97% RH (10 days) ([3]; 25° C./97% RH): Consistent with Form 3 | XRPD post storage at 40° C./75% RH (10 days) ([3]; 40° C./75% RH): Consistent with Form 3

CCNCCc1ccc(CN(CC)c2cc(OC)ccc2[C@@H]2CCc3cc(O)ccc3C2)cc1.Cl.Cl [Sample 2]
VH-XRPD: form at 0% RH ([4]; 0% RH): 5E). Form 2 at 0% | VH-XRPD: form change at >90% RH ([4]; >90% RH (92-93% RH)): conversion toward the hydrated state; also recorded: Conversion to Form 3 | XRPD after storage at 25° C./97% RH for 1 week (solid form) [1]: Form 3 | XRPD after storage at 40° C./75% RH for 1 week (solid form) [1]: Form 3 | Hygroscopicity (GVS), in words ([2]; 0-90% RH): hygroscopic | XRPD post GVS (uptake 0-90% RH) ([2]; 25° C.): mixture of Form 2 and Form 3 | VT-XRPD: form after melt and recrystallization above 175° C. ([5]; heated above 175° C.): converted to Form 1; also recorded: recrystallized as Form 1 | VT-XRPD: form obtained on heating to 100° C. ([5]; heating to 100° C.): converted to Form 2; also recorded: Anhydrous Form 2

CCNCCc1ccc(CN(CC)c2cc(OC)ccc2[C@@H]2CCc3cc(O)ccc3C2)cc1.Cl.Cl [Sample 1]
VH-XRPD: form change over 24 hr at ~95% RH ([4]; ~95% RH, 24 hr): unable to show a direct conversion; also recorded: Form 3 over | XRPD after storage at 25° C./97% RH for 1 week (solid form) [1]: Form 3 | XRPD after storage at 40° C./75% RH for 1 week (solid form) [1]: Form 1 | Form change on exposure to high RH (>90%) [1]: converted to the hydrate Form 3 | Solubility in alcohols, esters, and hydrocarbon solvents, in words ([6]; alcohols, esters, hydrocarbon solvents): low solubility | Solubility in water, in words ([6]; water): highly soluble | Solubility in water and t-butanol/water (1:1), in words ([6]; water, t-butanol/water (1:1)): high solubility | GVS: reversibility of uptake and loss ([2]; 0-90% RH): (reversible) | GVS uptake 0-90% RH ([2]; 0-90% RH, 25° C.): 1.8% wt. | GVS mass uptake when held at 95% RH for ~12 hours (HighRH method) ([2]; 95% RH, ~12 hours): 5-6 % wt. | Form change at high RH (>90%) in GVS experiments [2]: irreversibly converted to a hydrate (Form 3) | XRPD post GVS (uptake 0-90% RH) ([2]; 25° C.): Form 1 | XRPD post-GVS (HighRH_DoubleCycle_2 method) ([2]; double cycle, 1600 mins at 95% RH, 800 mins at 0% RH): Form 3 | XRPD post-GVS (HighRH method) ([2]; held at 90 then 95% RH for ~12 hours): mixture of states or incomplete conversion | XRPD post-GVS (HighRH_Desorp_3 method) ([2]; single cycle to 95% RH, desorption to 0% RH, adsorption to 40% RH): mixture of Form 1 and Form 3

CCNCCc1ccc(CN(CC)c2cc(OC)ccc2[C@@H]2CCc3cc(O)ccc3C2)cc1.Cl.Cl [Form 2]
Form obtained on exposure to >40% RH for 7 days ([1]; >40% RH, 7 days): Form 3 | Hygroscopicity (GVS), in words ([2]; 0-90% RH): hygroscopic

CCNCCc1ccc(CN(CC)c2cc(OC)ccc2[C@@H]2CCc3cc(O)ccc3C2)cc1 [RAD1901]
Binding selectivity for the estrogen receptor (ER), in words (estrogen receptor (ER)): good selectivity

CCNCCc1ccc(CN(CC)c2cc(OC)ccc2[C@@H]2CCc3cc(O)ccc3C2)cc1.Cl.Cl [Form 1]
XRPD after storage at 25° C./97% RH for 1 week (solid form) [1]: converted to Form 3; also recorded: conversion towards a hydrated state Form 3; also recorded: Converts to Form 3 at 25° C./ | XRPD after storage at 40° C./75% RH for 1 week (solid form) [1]: stable; also recorded: Remains as Form 1 at 40° C./ | Form change on exposure to high RH (>90%) [1]: irreversibly converted to the hydrate Form 3 | Stability of the form (heat/humidity), in words ([1]; summary of characterizations of Samples 1 and 2): stable | GVS: reversibility of uptake and loss ([2]; 0-90% RH): exhibits reversible uptake and loss, | Hygroscopicity (GVS), in words ([2]; 0-90% RH): lower hygroscopicity; also recorded: relatively non-hygroscopic; also recorded: low hygroscopicity; also recorded: Sample is slightly hygroscopic, but | GVS total mass change between 0 and 90% RH [2]: Total mass change of 1.7% wt. | Form change at high RH (>90%) in GVS experiments [2]: started converting to the hydrate Form 3 | XRPD post GVS (uptake 0-90% RH) ([2]; 25° C.): unchanged XRPD pattern; also recorded: No changes; also recorded: Form 1

Source: patent publication US11643385B2, “Polymorphic forms of RAD1901-2HCl” (RADIUS PHARMACEUTICALS, INC., priority 2018, dated 2023)
